Reference: US20170190671A1, “BIS(ARYL)CATECHOL DERIVATIVES AS HERBICIDES” (E I DU PONT DE NEMOURS AND COMPANY, priority 2014, published 2017)

Tests used:
Details in all cases: scale 0 to 100
[1] = system: spring wheat (Triticum aestivum); assay: Test D preemergence; type: in vivo
Description: (§1) Seeds of plant species selected from bluegrass (annual bluegrass, Poa annua), blackgrass (Alopecurus myosuroides), canarygrass (Phalaris minor), chickweed (common chickweed, Stellaria media), cutleaf geranium (Geranium dissectum), galium (catchweed bedstraw, Galium aparine), downy bromegrass (Bromus tectorum), field poppy (Papaver rhoeas), field violet (Viola arvensis), green foxtail (Setaria viridis), deadnettle (henbit deadnettle, Lamium amplexicaule), Italian ryegrass (Lolium multiflorum), kochia (Kochia scoparia), lambsquarters (Chenopodium album), oilseed rape (Brassica napus), pigweed (Amaranthus retroflexus), chamomile (scentless chamomile, Matricaria inodora), Russian thistle (Salsola kali), speedwell (bird's-eye speedwell, Veronica persica), spring barley (Hordeum vulgare), spring wheat (Triticum aestivum), wild buckwheat (Polygonum convolvulus), wild mustard (Sinapis arvensis), wild oat (Avenafatua), wild radish (Raphanus raphanistrum), windgrass (Apera spica-venti), winter barley (Hordeum vulgare), and winter wheat (Triticum aestivum) were planted into a silt loam soil and treated preemergence with test chemicals formulated in a non-phytotoxic solvent mixture which included a surfactant.
(§2) At the same time, these species were planted in pots containing Redi-Earth® planting medium (Scotts Company, 14111 Scottslawn Road, Marysville, Ohio 43041) comprising spaghnum peat moss, vermiculite, wetting agent and starter nutrients and treated with postemergence applications of the test chemicals formulated in the same manner. Plants ranged in height from 2 to 18 cm (1- to 4-leaf stage). Treated plants and controls were maintained in a controlled growth environment for 14 to 21 days after which time all species were compared to controls and visually evaluated. Plant response ratings, summarized in Table D, are based on a scale of 0 to 100 where 0 is no effect and 100 is complete control. A dash (-) response means no test result.

[2] = system: wild mustard (Sinapis arvensis); assay: Test D preemergence; type: in vivo
Description: as §1, §2

[3] = system: Italian ryegrass (Lolium multiflorum); assay: Test D preemergence; type: in vivo
Description: as §1, §2

[4] = system: wild radish (Raphanus raphanistrum); assay: Test D preemergence; type: in vivo
Description: as §1, §2

[5] = system: blackgrass (Alopecurus myosuroides); assay: Test D preemergence; type: in vivo
Description: as §1, §2

[6] = system: green foxtail (Setaria viridis); assay: Test D preemergence; type: in vivo
Description: as §1, §2

[7] = system: field violet (Viola arvensis); assay: Test D preemergence; type: in vivo
Description: as §1, §2

[8] = system: galium (catchweed bedstraw, Galium aparine); assay: Test D preemergence; type: in vivo
Description: as §1, §2

[9] = system: windgrass (Apera spica-venti); assay: Test D preemergence; type: in vivo
Description: as §1, §2

[10] = system: winter barley (Hordeum vulgare); assay: Test D preemergence; type: in vivo
Description: as §1, §2

[11] = system: Russian thistle (Salsola kali); assay: Test D preemergence; type: in vivo
Description: as §1, §2

wild oat (Avenafatua) [12] = assay: Test D preemergence; type: in vivo, Avena fatua
Description: as §1, §2

[13] = system: Italian ryegrass (Lolium multiflorum); assay: Test D postemergence; type: in vivo
Outline: (§3)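 Ratings of 0–100 reflect visual comparison with control plants at 14 to 21 days. For preemergence, compound was sprayed on silt loam just after sowing; for postemergence, on plants 2 to 18 cm in height.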

[14] = system: wild radish (Raphanus raphanistrum); assay: Test D postemergence; type: in vivo
Outline: as §3

[15] = system: spring barley (Hordeum vulgare); assay: Test D postemergence; type: in vivo
Outline: as §3

[16] = system: galium (catchweed bedstraw, Galium aparine); assay: Test D postemergence; type: in vivo
Outline: as §3

[17] = system: windgrass (Apera spica-venti); assay: Test D postemergence; type: in vivo
Outline: as §3

[18] = system: speedwell (bird's-eye speedwell, Veronica persica); assay: Test D postemergence; type: in vivo
Outline: as §3

wild oat (Avenafatua) [19] = assay: Test D postemergence; type: in vivo, Avena fatua
Description: as §1, §2

Fc1cccc(Oc2ncc(C(F)(F)F)cn2)c1Oc1ncc(Cl)cn1 [Compound 42, 5-chloro-2-[2-fluoro-6-[[5-(trifluoromethyl)-2-pyrimidinyl]oxy]phenoxy]pyrimidine]
Plant response rating, Wheat, Spring ([1]; 16 g ai/ha): 0 | Plant response rating, Wheat, Spring ([1]; 31 g ai/ha): 0 | Plant response rating, Wheat, Spring ([1]; 62 g ai/ha): 15 | Plant response rating, Wheat, Spring ([1]; 125 g ai/ha): 65 | Plant response rating, Mustard, Wild ([2]; 16 g ai/ha): 70 | Plant response rating, Mustard, Wild ([2]; 31 g ai/ha): 65 | Plant response rating, Mustard, Wild ([2]; 62 g ai/ha): 85 | Plant response rating, Mustard, Wild ([2]; 125 g ai/ha): 100 | Plant response rating, Ryegrass, Italian ([3]; 16 g ai/ha): 0 | Plant response rating, Ryegrass, Italian ([3]; 31 g ai/ha): 0 | Plant response rating, Ryegrass, Italian ([3]; 62 g ai/ha): 35 | Plant response rating, Ryegrass, Italian ([3]; 125 g ai/ha): 70 | Plant response rating, Radish, Wild ([4]; 16 g ai/ha): 25 | Plant response rating, Radish, Wild ([4]; 62 g ai/ha): 85 | Plant response rating, Radish, Wild ([4]; 125 g ai/ha): 100 | Plant response rating, Blackgrass ([5]; 16 g ai/ha): 0 | Plant response rating, Blackgrass ([5]; 31 g ai/ha): 10 | Plant response rating, Blackgrass ([5]; 62 g ai/ha): 35 | Plant response rating, Blackgrass ([5]; 125 g ai/ha): 75 | Plant response rating, Foxtail, Green ([6]; 16 g ai/ha): 10 | Plant response rating, Foxtail, Green ([6]; 31 g ai/ha): 60 | Plant response rating, Foxtail, Green ([6]; 62 g ai/ha): 100 | Plant response rating, Foxtail, Green ([6]; 125 g ai/ha): 100 | Plant response rating, Field Violet ([7]; 16 g ai/ha): 25 | Plant response rating, Field Violet ([7]; 31 g ai/ha): 100 | Plant response rating, Field Violet ([7]; 62 g ai/ha): 100 | Plant response rating, Field Violet ([7]; 125 g ai/ha): 100 | Plant response rating, Galium ([8]; 16 g ai/ha): 65 | Plant response rating, Galium ([8]; 31 g ai/ha): 70 | Plant response rating, Galium ([8]; 62 g ai/ha): 100 | Plant response rating, Galium ([8]; 125 g ai/ha): 100 | Plant response rating, Windgrass ([9]; 16 g ai/ha): 15 | Plant response rating, Windgrass ([9]; 31 g ai/ha): 60 | Plant response rating, Windgrass ([9]; 62 g ai/ha): 90 | Plant response rating, Windgrass ([9]; 125 g ai/ha): 100 | Plant response rating, Barley, Winter ([10]; 16 g ai/ha): 0 | Plant response rating, Barley, Winter ([10]; 31 g ai/ha): 0 | Plant response rating, Barley, Winter ([10]; 62 g ai/ha): 15 | Plant response rating, Barley, Winter ([10]; 125 g ai/ha): 80 | Plant response rating, Russian Thistle ([11]; 16 g ai/ha): 0 | Plant response rating, Russian Thistle ([11]; 31 g ai/ha): 20 | Plant response rating, Russian Thistle ([11]; 62 g ai/ha): 15 | Plant response rating, Russian Thistle ([11]; 125 g ai/ha): 55 | Plant response rating, Oat, Wild (wild oat (Avenafatua) [12]; 16 g ai/ha): 5 | Plant response rating, Oat, Wild (wild oat (Avenafatua) [12]; 31 g ai/ha): 5 | Plant response rating, Oat, Wild (wild oat (Avenafatua) [12]; 62 g ai/ha): 50 | Plant response rating, Oat, Wild (wild oat (Avenafatua) [12]; 125 g ai/ha): 95 | Plant response rating, Ryegrass, Italian ([13]; 16 g ai/ha): 20 | Plant response rating, Ryegrass, Italian ([13]; 31 g ai/ha): 50 | Plant response rating, Ryegrass, Italian ([13]; 62 g ai/ha): 60 | Plant response rating, Ryegrass, Italian ([13]; 125 g ai/ha): 65 | Plant response rating, Radish, Wild ([14]; 16 g ai/ha): 80 | Plant response rating, Radish, Wild ([14]; 31 g ai/ha): 75 | Plant response rating, Radish, Wild ([14]; 62 g ai/ha): 85 | Plant response rating, Radish, Wild ([14]; 125 g ai/ha): 90 | Plant response rating, Barley, Spring ([15]; 16 g ai/ha): 10 | Plant response rating, Barley, Spring ([15]; 31 g ai/ha): 15 | Plant response rating, Barley, Spring ([15]; 62 g ai/ha): 20 | Plant response rating, Barley, Spring ([15]; 125 g ai/ha): 30 | Plant response rating, Galium ([16]; 16 g ai/ha): 70 | Plant response rating, Galium ([16]; 31 g ai/ha): 85 | Plant response rating, Galium ([16]; 62 g ai/ha): 90 | Plant response rating, Galium ([16]; 125 g ai/ha): 100 | Plant response rating, Windgrass ([17]; 16 g ai/ha): 25 | Plant response rating, Windgrass ([17]; 31 g ai/ha): 40 | Plant response rating, Windgrass ([17]; 62 g ai/ha): 50 | Plant response rating, Windgrass ([17]; 125 g ai/ha): 60 | Plant response rating, Speedwell ([18]; 16 g ai/ha): 40 | Plant response rating, Speedwell ([18]; 31 g ai/ha): 50 | Plant response rating, Speedwell ([18]; 62 g ai/ha): 80 | Plant response rating, Speedwell ([18]; 125 g ai/ha): 80 | Plant response rating, Oat, Wild (wild oat (Avenafatua) [19]; 16 g ai/ha): 25 | Plant response rating, Oat, Wild (wild oat (Avenafatua) [19]; 31 g ai/ha): 45 | Plant response rating, Oat, Wild (wild oat (Avenafatua) [19]; 62 g ai/ha): 40 | Plant response rating, Oat, Wild (wild oat (Avenafatua) [19]; 125 g ai/ha): 70
